This test is described as follows: Activity of the resolved enantiomers of 1-5 (test not stated). The note with it: enantiomers resolved on Chiralpak AD; first and second peak to elute.

As for `CC(=O)N1N=C(c2cc(F)ccc2F)C[C@@]1(CCCO)c1ccccc1` (single isomer, unassigned; isomer 3) [(S) isomer], the “activity of the enantiomer (active / inactive)” value was “active”. The same measure for `CC(=O)N1N=C(c2cc(F)ccc2F)C[C@]1(CCCO)c1ccccc1` [(R) isomer]: “inactive”.

Values taken from patent US7618971B2, “Mitotic kinesin inhibitors” (Merck & Co. Inc., priority 2004, dated 2009).
